# In EP1310258A1, “Enantiomers of steroids for the enhancement of memory and cognitive function” (Baulieu, Etienne-Emile, priority 2001, dated 2003):
# Counter-ions that a name gives are not always drawn.
# Tests used:
# NMDA receptor [1] = test: Coadministration of steroids with the NMDA receptor antagonist AP5, Y-maze recognition performance, rats; assay type: in vivo; conditions: for memory performances when coadministered with AP5 compared to the group treated with the steroid alone: AP5 10 nmol ICV together with PREGS 0.5 nmol or ent-PREGS 0.05 nmol; for recognition performances of steroid alone compared with vehicle-controls: ICV effective doses alone (PREGS 0.5 nmol, ent-PREGS 0.05 nmol), P < 0.05
# Method: (§1) The two-trial memory task based on spontaneous exploration of novelty was adapted from the ones described by Dellu et al. (1992, Brain Res., 588, 132-9) in rats and by Ladurelle et al. (2000, Brain Res., 858, 371-9) in mice.
# (§2) Experiments were performed in a gray polyvinychloride Y-maze. The size of each arm was 40 cm long, 15 cm wide and 35 cm high for rats, and 30 cm long, 10 cm wide and 17 cm high for mice. The floor of the maze was covered with odor-saturated sawdust which was mixed after each trial. The maze was placed in a sound-attenuated room under dim illumination. Numerous visual cues were placed on the walls of the testing room and kept constant during the entire behavioral testing..
# (§3) The test consisted of two trials, separated by a 6-h intertrial interval. During the first trial (acquisition phase), one arm of the Y-maze (subsequently called novel arm) was closed with a guillotine door, thus allowing the animal to explore only the other two arms, during 5 min and 3 min for rats and mice, respectively. During the second trial (retention phase), the animals had access to the three arms for 5 min. The time spent in each arm of the maze was recorded manually every minute. Recognition was assumed to have occurred when the animal spent more time in the novel arm compared with the familiar ones. The total number of arm visits provided a measure of general motor activity.
# (§4) A between-subjects design was used where each observation was made for a separate animal. Data were reported as the amount of time spent in the novel arm relative to the total duration of visits in the three arms (novel/total x 100) during the first 3 min.
# (§5) They were expressed as mean ± SEM and analyzed by using one-way ANOVA followed by Newmann-Keuls posthoc test. Significance was defined as P<0.05 or P<0.01.
# (§6) The effects of the ICV injection of AP5, at ICV doses of 2 and 10 nmol in mice and rats, respectively, was studied on the memory-enhancing effects of PREGS (0.5 nmol in rats and 5.0 nmol in mice) and ent-PREGS (0.05 nmol in rats and 5.0 nmol in mice).
# NMDA receptor [2] = test: Coadministration of steroids with the NMDA receptor antagonist AP5, Y-maze recognition performance, mice; assay type: in vivo; conditions: for memory performances when coadministered with AP5 compared to the group treated with the steroid alone: AP5 2 nmol ICV together with PREGS 5.0 nmol or ent-PREGS 5.0 nmol (so in the source); for recognition performances of steroid alone compared with vehicle-controls: ICV effective doses alone (PREGS 5.0 nmol, ent-PREGS 5.0 nmol as printed), P < 0.05
# Method: as §1, §2, §3, §4, §5, §6
# steroid sulfatase [3] = molecular target: T1, steroid sulfatase (Rattus norvegicus, UniProt P15589); test: In vitro metabolism: steroid sulfatase activity by rat brain microsomes; assay type: in vitro ADME; set-up: 200 µg microsomal proteins prepared from rat brain or liver; from tissue; host or cells: rat liver microsomes; conditions: 8 µg steroid with 200 µg rat brain microsomal proteins, 37°C, 1 hour
# T1 sequence (P15589 20-577): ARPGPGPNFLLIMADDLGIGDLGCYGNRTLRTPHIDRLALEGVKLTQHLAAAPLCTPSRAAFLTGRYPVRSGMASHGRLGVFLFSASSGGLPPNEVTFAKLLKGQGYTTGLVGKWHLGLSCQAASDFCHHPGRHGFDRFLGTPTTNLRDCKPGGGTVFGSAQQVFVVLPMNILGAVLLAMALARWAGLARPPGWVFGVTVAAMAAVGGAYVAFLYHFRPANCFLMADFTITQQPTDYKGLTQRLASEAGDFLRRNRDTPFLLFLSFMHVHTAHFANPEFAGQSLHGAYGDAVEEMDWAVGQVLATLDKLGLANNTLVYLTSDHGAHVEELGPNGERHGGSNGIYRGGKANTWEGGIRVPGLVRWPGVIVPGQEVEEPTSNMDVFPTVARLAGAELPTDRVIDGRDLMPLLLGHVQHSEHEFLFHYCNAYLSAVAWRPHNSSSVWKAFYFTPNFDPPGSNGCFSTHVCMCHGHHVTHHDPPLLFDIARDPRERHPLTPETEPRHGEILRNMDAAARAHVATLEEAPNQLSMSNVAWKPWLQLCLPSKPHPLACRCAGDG
# Method: (§7) The metabolism of PREGS and ent-PREGS was examined after incubation of 8 µg of each steroid with 200 µg microsomal proteins prepared from rat brain or liver, at 37°C for lhour, and the unconjugated PREG was quantified in the brain by gas-chromatography-mass spectrometry (Liere et al., 2000, J. Chromatogr. B Biomed. Sci. Appl. 2000,739:301-12)
# as §7, with “DHEAS” for “PREGS”, “ent-DHEAS” for “ent-PREGS”, “1hour,” for “lhour,”, “DHEA” for “PREG”
# steroid sulfatase [4] = molecular target: T1, steroid sulfatase; test: In vitro metabolism: steroid sulfatase activity by rat liver microsomes; assay type: in vitro ADME; set-up: 200 µg microsomal proteins prepared from rat brain or liver; from tissue; host or cells: rat liver microsomes; conditions: 37°C, 1 hour; for formation of DHEA (metabolism by sulfatase) / formation of PREG (metabolism by sulfatase): 8 µg steroid with 200 µg rat liver microsomal proteins
# Method: as §7
# as §7, with “DHEAS” for “PREGS”, “ent-DHEAS” for “ent-PREGS”, “1hour,” for “lhour,”, “DHEA” for “PREG”
# Swiss mice = test: Two-trial memory task (spatial recognition) in a Y-maze after ICV administration, mice; assay type: in vivo; conditions: ICV immediately after acquisition, 6-h intertrial interval, Newman-Keuls (PREGS P<0.05; ent-PREGS P<0.01)
# Method: (§8) Male Sprague-Dawley rats and Swiss mice (Janvier, Le Genest St-Isle, France) 2 months of age and weighing 250-300g for rats and 30-32g for mice at the time of surgery were used. They were grouped-housed in a temperature (22°C ± 1°C) and humidity (50% ± 5%) controlled room. They were maintained on a 12-h light/12-h dark (08.00-20.00) schedule and had access to food and water ad libitum.
# (§9) Rats were anaesthesized with a mixture of 5% ketamine (Imalgène 1000, Merial, France) and 0.1% acepromazine (Vetranquil 1%,) in saline, administered i.p. at 1.5 ml/kg. Mice were anesthetized with a mixture of 0.5% ketamine and 0.1% xylazine, under the volume of 15 ml/kg.
# (§10) Animals were mounted in a stereotaxic and implanted with unilateral stainless steel cannula guides (23-gauge, 7 mm long) above the lateral ventricle, according to the coordinates from the atlas of rats and mice. Cannulas were secured to the skull with stainless steel screws and dental cement.
# Animals were used for experiments after a 7-day postrecovery period. Each animal was handled daily for 3 days before the experiments and on the day before each experiment, cannula function was confirmed by gravity flow of isotonic saline. […]
# (§11) The test consisted of two trials, separated by a 6-h intertrial interval. […] The time spent in each arm of the maze was recorded manually every minute. […]
# steroid sulfatase [5] = molecular target: T1, steroid sulfatase; test: In vivo metabolism in rat brain: steroid sulfatase activity (GC-MS of unconjugated PREG); conditions: 5 min after ICV administration of 1µg
# Method: The metabolism of PREGS and ent-PREGS was investigated 5 min after ICV administration of 1µg of each compound in rat and the unconjugated PREG was quantified in the brain by gas-chromatography-mass spectrometry (Liere et al., 2000, J. Chromatogr. B Biomed Sci. Appl. 2000,739:301-12).
# Male Sprague-Dawley rats = test: Two-trial memory task (spatial recognition) in a Y-maze after ICV administration, rats; assay type: in vivo; conditions: ICV immediately after acquisition, 6-h intertrial interval, Newman-Keuls P<0.05
# Method: as §8, §9, §10
# Animals were used for experiments after a 7-day postrecovery period. Each animal was handled daily for 3 days before the experiments and on the day before each experiment, cannula function was confirmed by gravity flow of isotonic saline.
# PREGS was obtained from Steraloïds (Newport, RI, Etats-Unis); the steroid enantiomers ent-SPREG et ent-SDHEA were synthesized as previously described (Nilsson et al., 1998, op. cit.). All compounds were dissolved in […] (vehicle)
# PREGS was administered iCV at doses of 0 (vehicle), 0.05, 0.25, 0.5, 2.5, 5.0 and 12.5 nmol in rats and of 0 (vehicle), 0.05, 0.25, 0.5, 2.5, 5.0 and 12.5 nmol mice
# ent-PREGS was injected ICV at doses of 0 (vehicle), 0.025, 0.05, 0.25, 0.5 nmol in rats and 0 (vehicle), 0.025, 0.05, 0.25, 0.5 and 2.5 nmol in mice.
# ent-SDHEA was administered iCV at doses of 0; 0,25; 0,25 nmol in rats.
# Drug and control-vehicle solutions were injected unilaterally through the cannula guide. […]
# as §11
# [6] = rat liver versus brain microsomes, 8 µg steroid, 200 µg protein
compound,measurement,setting,value
NC(CCCP(=O)(O)O)C(=O)O (stereo not drawn) [AP5],recognition performance of AP5-treated group versus vehicle-control,"NMDA receptor [1]; AP5 alone 10 nmol ICV, P > 0.05",did not significantly differ
same,recognition performance of AP5-treated group versus vehicle-control,"NMDA receptor [2]; AP5 alone 2 nmol ICV, P > 0.05",did not significantly differ
"C[C@]12CC[C@H](OS(=O)(=O)O)CC1=CC[C@@H]1[C@@H]2CC[C@]2(C)C(=O)CC[C@@H]12 [DHEAS, dehydroepiandrosterone sulfate]",formation of DHEA (metabolism by sulfatase),steroid sulfatase [3],metabolized into DHEA
same,formation of DHEA (metabolism by sulfatase),steroid sulfatase [4],metabolized into DHEA
same,levels of DHEA in the liver relative to the brain,steroid sulfatase [4]; [6],5 times
"CC(=O)C1CCC2C3CC=C4CC(OS(=O)(=O)O)CCC4(C)C3CCC12C (stereo not drawn) [PREGS, pregnenolone sulfate]",memory performances when coadministered with AP5 compared to the group treated with the steroid alone,NMDA receptor [1],significantly reduced
same,recognition performances of steroid alone compared with vehicle-controls,NMDA receptor [1],significantly increased
same,formation of PREG (metabolism by sulfatase),steroid sulfatase [3],metabolized into PREG
same,dose at which % time spent in the novel arm / memory performance was significantly increased relative to vehicle-control,Swiss mice,5.0 nmol
same,brain content of PREG compared with saline-injected control rats,steroid sulfatase [5],signicantly increased
same,memory performances when coadministered with AP5 compared to the group treated with the steroid alone,NMDA receptor [2],significantly reduced
same,recognition performances of steroid alone compared with vehicle-controls,NMDA receptor [2],significantly increased
same,dose at which % time spent in the novel arm / memory performance was significantly increased relative to vehicle-control,Male Sprague-Dawley rats,0.5 nmol
same,formation of PREG (metabolism by sulfatase),steroid sulfatase [4],metabolized into PREG
same,levels of PREG in the liver relative to the brain,steroid sulfatase [4]; [6],4 times
C[C@@]12CC[C@@H]3[C@H](CC=C4C[C@H](OS(=O)(=O)O)CC[C@]43C)[C@H]1CCC2=O [ent-DHEAS],formation of DHEA (metabolism by sulfatase),steroid sulfatase [3],undectectable
same,dose at which % time spent in the novel arm / memory performance was significantly increased relative to vehicle-control,Male Sprague-Dawley rats,"0,025 nmol"
same,formation of DHEA (metabolism by sulfatase),steroid sulfatase [4],undectectable
CC(=O)[C@@H]1CC[C@@H]2[C@H]3CC=C4C[C@H](OS(=O)(=O)O)CC[C@@]4(C)[C@@H]3CC[C@]21C [ent-PREGS],memory performances when coadministered with AP5 compared to the group treated with the steroid alone,NMDA receptor [1],did not perform differently
same,recognition performances of steroid alone compared with vehicle-controls,NMDA receptor [1],significantly increased
same,formation of PREG (metabolism by sulfatase),steroid sulfatase [3],undectectable
same,dose at which % time spent in the novel arm / memory performance was significantly increased relative to vehicle-control,Swiss mice,0.5 nmol
same,brain content of PREG compared with saline-injected control rats,steroid sulfatase [5],did not significantly differ
same,memory performances when coadministered with AP5 compared to the group treated with the steroid alone,NMDA receptor [2],did not perform differently
same,recognition performances of steroid alone compared with vehicle-controls,NMDA receptor [2],significantly increased
same,dose at which % time spent in the novel arm / memory performance was significantly increased relative to vehicle-control,Male Sprague-Dawley rats,0.05 nmol
same,formation of PREG (metabolism by sulfatase),steroid sulfatase [4],undectectable
